Test results as given in ChEMBL document CHEMBL1764984 (J Med Chem, 2011).
Converted amounts (≈) assume the structure as drawn.

What was measured:
[1] = test system: Blood; assay: Inhibition of TNFalpha-induced IL1-beta production in human whole blood after 2 to 5 hrs by ELISA; assay type: functional, tissue-based
[2] = target: Mitogen-activated protein kinase 14 (Homo sapiens, UniProt Q16539); assay: Inhibition of human recombinant p38alpha assessed as incorporation of 33P from gamma-[33P]ATP into myelin basic protein after 30 mins by scintillation counting
[3] = target: Serine/threonine-protein kinase NLK (Homo sapiens) (UniProt Q9UBE8); assay: Inhibition of NLK at 10 uM
[4] = target: Ribosomal protein S6 kinase alpha-4 (Homo sapiens, UniProt O75676); assay: Inhibition of RSK4 at 10 uM
[5] = target: Mitogen-activated protein kinase 10 (Homo sapiens, UniProt P53779); conditions: 10 uM
Description: Inhibition of JNK3 at 10 uM

[6] = target: Atypical kinase COQ8A, mitochondrial (Homo sapiens, UniProt Q8NI60); conditions: 10 uM
Description: Inhibition of ADCK3 at 10 uM

[7] = target: Mitogen-activated protein kinase 8 (Homo sapiens) (UniProt P45983); assay: Inhibition of JNK1 at 10 uM
[8] = target: Casein kinase I isoform epsilon (Homo sapiens, UniProt P49674); conditions: 10 uM
Description: Inhibition of CSNK1epsilon at 10 uM

[9] = target: Ribosomal protein S6 kinase alpha-3 (Homo sapiens, UniProt P51812); assay: Inhibition of RSK2 at 10 uM
[10] = target: Cyclin-G-associated kinase (Homo sapiens) (UniProt O14976); assay: Inhibition of GAK at 10 uM
[11] = target: Serine/threonine-protein kinase 36 (Homo sapiens) (UniProt Q9NRP7); conditions: 10 uM
Description: Inhibition of STK36 at 10 uM

[12] = target: Epithelial discoidin domain-containing receptor 1 (Homo sapiens, UniProt Q08345); assay: Inhibition of DDR1 at 10 uM
[13] = target: Mitogen-activated protein kinase 11 (Homo sapiens, UniProt Q15759); assay: Inhibition of P38beta at 10 uM
[14] = target: Mitogen-activated protein kinase 9 (Homo sapiens) (UniProt P45984); assay: Inhibition of JNK2 at 10 uM
[15] = target: Tyrosine-protein kinase Lck (Homo sapiens, UniProt P06239); assay: Inhibition of LCK
[16] = Permeability of the compound from apical to basolateral side of human Caco2 cells at 10 uM after 21 days; assay type: ADME, cell-based; conditions: Caco-2, read-out: permeability
[17] = Permeability of the compound from basolateral to apical side of human Caco2 cells at 10 uM after 21 days; assay type: ADME, cell-based; conditions: Caco-2, read-out: permeability
[18] = Aqueous solubility of the compound in phosphate buffer at pH 6.5; assay type: physicochemical
[19] = test system: Rattus norvegicus; assay: Inhibition of LPS-induced TNFalpha production in rat serum at 3 mg/kg, po administered 30 mins before LPS challenge measured after […] by ELISA; assay type: functional

Mitogen-activated protein kinase 14, sequence (Q16539 whole entry): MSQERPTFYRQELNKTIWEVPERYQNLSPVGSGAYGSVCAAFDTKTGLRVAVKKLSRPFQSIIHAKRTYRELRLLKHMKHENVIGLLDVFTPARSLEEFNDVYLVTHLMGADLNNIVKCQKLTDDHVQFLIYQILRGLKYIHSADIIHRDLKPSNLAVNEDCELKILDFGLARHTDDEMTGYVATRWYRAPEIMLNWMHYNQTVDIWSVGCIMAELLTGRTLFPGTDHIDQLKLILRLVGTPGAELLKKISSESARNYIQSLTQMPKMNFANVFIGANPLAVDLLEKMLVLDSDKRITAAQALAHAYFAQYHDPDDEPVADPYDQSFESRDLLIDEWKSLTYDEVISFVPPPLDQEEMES
Mitogen-activated protein kinase 8 (Homo sapiens), sequence (P45983 whole entry, canonical isoform): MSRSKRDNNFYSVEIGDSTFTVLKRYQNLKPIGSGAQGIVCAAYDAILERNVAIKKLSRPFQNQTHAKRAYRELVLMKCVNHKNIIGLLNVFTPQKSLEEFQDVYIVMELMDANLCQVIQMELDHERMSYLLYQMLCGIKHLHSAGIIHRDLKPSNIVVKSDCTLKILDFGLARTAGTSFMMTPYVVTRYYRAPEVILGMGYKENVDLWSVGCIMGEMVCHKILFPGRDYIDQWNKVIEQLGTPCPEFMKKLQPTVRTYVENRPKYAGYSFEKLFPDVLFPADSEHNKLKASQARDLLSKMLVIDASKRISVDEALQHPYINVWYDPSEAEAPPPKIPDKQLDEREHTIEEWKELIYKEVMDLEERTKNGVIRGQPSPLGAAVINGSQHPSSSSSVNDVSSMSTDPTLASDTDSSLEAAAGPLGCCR
Mitogen-activated protein kinase 11, sequence (Q15759 whole entry): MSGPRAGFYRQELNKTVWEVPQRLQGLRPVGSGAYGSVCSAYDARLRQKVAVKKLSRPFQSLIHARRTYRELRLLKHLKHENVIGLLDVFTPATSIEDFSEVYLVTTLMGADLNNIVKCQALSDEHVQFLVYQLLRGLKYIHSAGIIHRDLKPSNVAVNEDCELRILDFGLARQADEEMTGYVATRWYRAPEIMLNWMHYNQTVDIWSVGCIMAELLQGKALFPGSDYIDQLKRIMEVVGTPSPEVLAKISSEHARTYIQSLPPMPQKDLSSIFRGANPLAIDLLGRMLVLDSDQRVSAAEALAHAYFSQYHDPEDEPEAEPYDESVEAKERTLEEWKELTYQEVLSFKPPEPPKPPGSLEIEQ
Serine/threonine-protein kinase NLK (Homo sapiens), sequence (Q9UBE8 whole entry): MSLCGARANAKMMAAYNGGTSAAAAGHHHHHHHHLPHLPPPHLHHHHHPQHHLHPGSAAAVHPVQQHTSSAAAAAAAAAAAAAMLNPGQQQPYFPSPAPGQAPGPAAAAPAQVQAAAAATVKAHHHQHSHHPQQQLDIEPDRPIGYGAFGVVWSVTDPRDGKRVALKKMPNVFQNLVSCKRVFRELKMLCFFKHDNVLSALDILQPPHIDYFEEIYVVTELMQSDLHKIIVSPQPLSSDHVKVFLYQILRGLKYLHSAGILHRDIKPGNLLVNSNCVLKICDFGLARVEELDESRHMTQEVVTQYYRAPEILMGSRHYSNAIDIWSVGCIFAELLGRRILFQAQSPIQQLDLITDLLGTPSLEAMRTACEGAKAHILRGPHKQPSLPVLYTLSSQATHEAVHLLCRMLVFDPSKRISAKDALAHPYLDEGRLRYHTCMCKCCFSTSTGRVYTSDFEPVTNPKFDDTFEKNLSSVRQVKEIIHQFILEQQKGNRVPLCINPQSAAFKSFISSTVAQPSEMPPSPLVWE
Casein kinase I isoform epsilon, sequence (P49674 whole entry, looked up, canonical isoform): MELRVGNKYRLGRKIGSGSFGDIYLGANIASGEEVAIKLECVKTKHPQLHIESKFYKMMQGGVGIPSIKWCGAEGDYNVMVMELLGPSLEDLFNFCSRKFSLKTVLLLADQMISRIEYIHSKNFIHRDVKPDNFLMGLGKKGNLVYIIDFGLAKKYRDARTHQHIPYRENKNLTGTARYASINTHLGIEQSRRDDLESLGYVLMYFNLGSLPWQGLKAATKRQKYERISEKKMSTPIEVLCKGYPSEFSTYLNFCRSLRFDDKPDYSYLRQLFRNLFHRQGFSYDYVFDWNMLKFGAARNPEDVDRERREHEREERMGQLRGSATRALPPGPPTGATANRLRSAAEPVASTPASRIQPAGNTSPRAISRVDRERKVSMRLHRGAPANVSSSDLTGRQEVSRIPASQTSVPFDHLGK
Cyclin-G-associated kinase (Homo sapiens), sequence (O14976 whole entry): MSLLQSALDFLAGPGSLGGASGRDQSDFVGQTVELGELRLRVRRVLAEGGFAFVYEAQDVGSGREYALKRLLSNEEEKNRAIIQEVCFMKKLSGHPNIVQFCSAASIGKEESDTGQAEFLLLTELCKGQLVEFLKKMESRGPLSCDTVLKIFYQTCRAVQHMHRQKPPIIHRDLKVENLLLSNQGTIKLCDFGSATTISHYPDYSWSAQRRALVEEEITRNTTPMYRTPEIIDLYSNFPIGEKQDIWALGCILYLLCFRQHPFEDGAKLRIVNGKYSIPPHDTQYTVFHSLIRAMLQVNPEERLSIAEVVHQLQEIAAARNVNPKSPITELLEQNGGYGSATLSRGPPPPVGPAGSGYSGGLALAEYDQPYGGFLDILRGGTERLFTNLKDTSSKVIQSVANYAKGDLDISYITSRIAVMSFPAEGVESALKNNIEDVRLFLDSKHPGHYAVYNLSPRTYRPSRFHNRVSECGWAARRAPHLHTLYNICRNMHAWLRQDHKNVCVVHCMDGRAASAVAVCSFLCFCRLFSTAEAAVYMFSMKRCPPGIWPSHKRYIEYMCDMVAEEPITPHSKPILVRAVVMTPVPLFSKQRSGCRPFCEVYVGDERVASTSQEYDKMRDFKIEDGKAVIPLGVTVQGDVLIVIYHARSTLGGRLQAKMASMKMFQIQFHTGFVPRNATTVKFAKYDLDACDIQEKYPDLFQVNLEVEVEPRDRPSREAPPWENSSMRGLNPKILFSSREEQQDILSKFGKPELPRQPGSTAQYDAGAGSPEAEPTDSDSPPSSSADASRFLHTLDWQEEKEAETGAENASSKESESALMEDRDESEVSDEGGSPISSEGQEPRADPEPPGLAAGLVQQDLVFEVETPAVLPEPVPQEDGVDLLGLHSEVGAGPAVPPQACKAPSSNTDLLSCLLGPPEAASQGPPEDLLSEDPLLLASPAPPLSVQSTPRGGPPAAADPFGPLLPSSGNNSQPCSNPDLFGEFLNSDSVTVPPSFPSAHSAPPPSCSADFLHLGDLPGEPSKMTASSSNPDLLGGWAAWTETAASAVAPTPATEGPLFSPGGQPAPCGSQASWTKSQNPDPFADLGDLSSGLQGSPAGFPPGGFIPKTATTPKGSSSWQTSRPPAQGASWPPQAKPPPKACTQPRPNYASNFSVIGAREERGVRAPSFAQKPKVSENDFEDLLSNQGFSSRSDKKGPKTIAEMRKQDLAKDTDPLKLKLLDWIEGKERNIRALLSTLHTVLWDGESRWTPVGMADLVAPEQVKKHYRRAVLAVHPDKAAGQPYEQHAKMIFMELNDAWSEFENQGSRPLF
Serine/threonine-protein kinase 36 (Homo sapiens), sequence (Q9NRP7 whole entry, the tested form may be a part): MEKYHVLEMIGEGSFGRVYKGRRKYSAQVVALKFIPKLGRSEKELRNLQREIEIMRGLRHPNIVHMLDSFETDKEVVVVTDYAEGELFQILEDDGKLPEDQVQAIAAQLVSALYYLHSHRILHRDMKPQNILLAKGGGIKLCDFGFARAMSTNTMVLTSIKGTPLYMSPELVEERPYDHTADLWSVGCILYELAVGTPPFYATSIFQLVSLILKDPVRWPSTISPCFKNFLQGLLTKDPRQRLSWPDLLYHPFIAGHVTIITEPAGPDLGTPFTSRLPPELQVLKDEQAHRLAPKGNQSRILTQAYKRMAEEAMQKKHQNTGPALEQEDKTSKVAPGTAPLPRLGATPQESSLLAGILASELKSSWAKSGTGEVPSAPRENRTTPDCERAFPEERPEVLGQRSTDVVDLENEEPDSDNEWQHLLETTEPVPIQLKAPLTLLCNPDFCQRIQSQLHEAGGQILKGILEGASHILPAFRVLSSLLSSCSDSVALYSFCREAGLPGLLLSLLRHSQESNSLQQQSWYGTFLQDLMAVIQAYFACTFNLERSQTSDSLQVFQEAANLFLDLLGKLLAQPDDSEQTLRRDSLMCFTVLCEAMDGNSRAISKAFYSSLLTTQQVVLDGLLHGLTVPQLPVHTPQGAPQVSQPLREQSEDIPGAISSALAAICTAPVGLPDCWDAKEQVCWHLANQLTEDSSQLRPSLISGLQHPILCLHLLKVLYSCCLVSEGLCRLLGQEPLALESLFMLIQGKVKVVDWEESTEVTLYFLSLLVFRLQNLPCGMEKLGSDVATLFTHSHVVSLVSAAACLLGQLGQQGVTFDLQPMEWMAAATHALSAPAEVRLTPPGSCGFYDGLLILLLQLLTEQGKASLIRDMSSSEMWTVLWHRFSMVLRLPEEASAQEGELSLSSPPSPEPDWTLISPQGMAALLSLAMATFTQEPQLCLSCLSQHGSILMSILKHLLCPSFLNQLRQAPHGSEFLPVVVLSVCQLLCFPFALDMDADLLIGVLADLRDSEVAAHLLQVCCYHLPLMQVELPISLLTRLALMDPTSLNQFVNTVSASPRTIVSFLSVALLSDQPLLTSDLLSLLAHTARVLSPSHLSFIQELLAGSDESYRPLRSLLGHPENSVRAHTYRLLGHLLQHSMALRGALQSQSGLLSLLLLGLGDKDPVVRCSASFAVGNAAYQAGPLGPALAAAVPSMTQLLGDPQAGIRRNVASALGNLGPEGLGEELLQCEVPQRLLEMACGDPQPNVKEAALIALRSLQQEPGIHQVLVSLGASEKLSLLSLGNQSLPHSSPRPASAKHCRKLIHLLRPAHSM

Structure (SMILES)	IC50 [1]	IC50 [2]	further results
Cn1c(=O)c(Oc2ccc(F)cc2F)cc2cnc(NC(CO)CO)nc21	0.189 µM	0.158 µM	–
CS(=O)(=O)CCn1c(=O)c(Oc2ccc(F)cc2F)cc2cnc(NC3CCOCC3)nc21	0.308 µM	0.02 µM	–
Cn1c(=O)c(Oc2ccc(F)cc2F)cc2cnc(N[C@H]3CCOC3)nc21	0.373 µM	0.031 µM	–
Cn1c(=O)c(Oc2ccc(F)cc2F)cc2cnc(NC3CCOCC3)nc21	–	–	inhibition [3]: > 85%; inhibition [4]: > 85%; inhibition [5]: > 85%; inhibition [6]: > 85%; inhibition [7]: > 85%; inhibition [8]: > 85%; inhibition [9]: > 85%; inhibition [10]: > 85%; inhibition [11]: > 85%; inhibition [12]: > 85%; inhibition [13]: > 85%; inhibition [14]: > 85%
O=c1c(Oc2ccc(F)cc2F)cc2cnc(NC3CCOCC3)nc2n1CCCO	0.014 µM	–	–
N#CCn1c(=O)c(Oc2ccc(F)cc2F)cc2cnc(NC3CCOCC3)nc21	0.028 µM	0.002 µM	–
O=c1[nH]c2nc(NC3CCOCC3)ncc2cc1Oc1ccc(F)cc1F	0.084 µM	0.018 µM	–
CCn1c(=O)c(Oc2ccc(F)cc2F)cc2cnc(NC3CCOCC3)nc21	0.015 µM	0.001 µM	–
Cn1c(=O)c(Oc2ccc(F)cc2F)cc2cnc(NC(C)(C)CO)nc21	–	0.025 µM	–
Cn1c(=O)c(-c2ccccc2Cl)cc2cnc(NC3CCOCC3)nc21	0.0857 µM	–	Kd [15]: 1.8 µM
O=c1c(Oc2ccc(F)cc2F)cc2cnc(NC3CCOCC3)nc2n1C[C@H](O)CO	0.015 µM	0.007 µM	–
Cn1c(=O)c(Oc2ccc(F)cc2F)cc2cnc(NCC(C)(C)O)nc21	–	0.067 µM	–
CNc1ncc2cc(Oc3ccc(F)cc3F)c(=O)n(C)c2n1	–	0.26 µM	–
Cn1c(=O)c(Oc2ccc(F)cc2F)cc2cnc(N[C@H]3CC[C@H](O)CC3)nc21	0.068 µM	0.004 µM	–
C[C@@H](CS(C)(=O)=O)Nc1ncc2cc(Oc3ccc(F)cc3F)c(=O)n(C)c2n1	> 3 µM	–	–
Cn1c(=O)c(Sc2ccccc2F)cc2cnc(NC3CCOCC3)nc21	0.731 µM	0.111 µM	–
C[C@H](CS(C)(=O)=O)Nc1ncc2cc(Oc3ccc(F)cc3F)c(=O)n(C)c2n1	0.05 µM	–	Papp A→B at 10 µM [16]: 135 nm/s; Papp B→A at 10 µM [17]: 224 nm/s; solubility [18]: 0.018 mg/mL (≈ 42.4 µM); inhibition in vivo at 3 mg/kg [19]: 88%
Cn1c(=O)c(Oc2ccc(F)cc2F)cc2cnc(NC3CCS(=O)(=O)CC3)nc21	0.769 µM	0.015 µM	–
CS(=O)(=O)CCCn1c(=O)c(Oc2ccc(F)cc2F)cc2cnc(NC3CCOCC3)nc21	0.018 µM	0.006 µM	–
